The target of the assay is T1, Recombinant human renin (Homo sapiens, UniProt P00797).
T1 construct: purchased Cayman 10006217
T1 sequence (P00797 67-406): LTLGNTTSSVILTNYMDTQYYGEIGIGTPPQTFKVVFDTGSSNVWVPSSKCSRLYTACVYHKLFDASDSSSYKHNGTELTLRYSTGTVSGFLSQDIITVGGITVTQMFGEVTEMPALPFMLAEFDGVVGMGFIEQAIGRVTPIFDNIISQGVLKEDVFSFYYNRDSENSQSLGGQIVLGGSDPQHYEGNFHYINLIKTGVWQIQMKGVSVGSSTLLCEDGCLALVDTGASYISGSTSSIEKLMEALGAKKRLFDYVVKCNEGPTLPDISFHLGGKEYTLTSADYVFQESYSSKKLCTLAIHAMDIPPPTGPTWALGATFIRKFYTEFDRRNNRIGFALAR
In words: Inhibition of renin (fluorogenic peptide substrate). The class given is biochemical. The method, then:
Recombinant human renin (Cayman, no. 10006217) at a concentration of 5 nM was incubated with the test compounds at various concentrations and the synthetic substrate Dabcyl-γ-Abu-[…]EDANS (Bachem, no. M-2050; Dabcyl means the 4-(4-dimethylamino-phenylazo)-benzoyl group and EDANS means the amide with 5-[(2-aminoethyl)amino]-naphthalene-1-sulfonic acid) at a concentration of 10 μM for 2 h at room temperature in 0.05 M Tris buffer (pH 8) containing 0.1 M NaCl, 2.5 mM EDTA and 1.25 mg/ml bovine serum albumin. The increase in fluorescence, which is due to fluorescence resonance energy transfer, was recorded at an excitation wavelength of 330 nm and an emission wavelength of 485 nm in a microplate spectrofluorometer. Inhibitory concentrations IC50 were calculated from the percentage of inhibition of renin activity as a function of the concentration of the test compound.

Setting [1] is: renin 5 nM, substrate Dabcyl-γ-Abu-[…]-EDANS 10 μM, 2 h room temperature, Tris buffer pH 8, compounds tested as the obtained salt, read-out: IC50 values for inhibition of renin (fluorogenic peptide substrate).

Each structure is given as a SMILES string. Read-outs that look alike come from different tables or passages of the source.

The IC50 is the concentration needed to halve the response being measured. Consider `CN(c1ccccc1)c1c(C(=O)N2CCNCC2)c2ccccc2n1-c1ccccc1` [Example 3, [2-(Methyl-phenyl-amino)-1-phenyl-1H-indol-3-yl]-piperazin-1-yl-methanone], for which the IC50 came to 3200 nM. As for `O=C(c1c(Oc2ccccc2)n(-c2ccccc2)c2ccccc12)N1CCCNCC1` [Example 5, Perhydro-1,4-diazepin-1-yl-(2-phenoxy-1-phenyl-1H-indol-3-yl)-methanone], under setting [1], the IC50 was determined as 3400 nM. Turning to `Cc1ccc(F)cc1Oc1c(C(=O)N2CCNCC2)c2ccccc2n1C1C=CCCC1` (centres unmarked) [Example 22, [1-Cyclohex-2-enyl-2-(5-fluoro-2-methyl-phenoxy)-1H-indol-3-yl]-piperazin-1-yl-methanone], under setting [1], the IC50 was 7.2 nM.

`O=C(c1c(Oc2ccccc2)n(-c2ccccc2)c2ccccc12)N1CCNC(CO)C1` (centres unmarked) [Example 24, (3-Hydroxymethyl-piperazin-1-yl)-(2-phenoxy-1-phenyl-1H-indol-3-yl)-methanone]: under setting [1], the IC50 turned out to be 1600 nM. `Cc1ccc(F)cc1Oc1c(C(=O)N2CCNCC2)c2ccc(OCC(=O)O)cc2n1-c1ccccc1` [Example 30, [2-(5-Fluoro-2-methyl-phenoxy)-1-phenyl-3-(piperazine-1-carbonyl)-1H-indol-6-yloxy]-acetic acid]: under setting [1], the IC50 was 130 nM. Still for that read-out and setting: for `Cc1ccccc1Sc1c(C(=O)N2CCNCC2)c2ccccc2n1-c1ccccc1` [Example 108] the value was 71 nM; for `Cc1ccccc1Cc1c(C(=O)N2CCNCC2)c2ccccc2n1-c1ccsc1` [Example 113], 230 nM; for `O=C(c1c(Oc2ccccc2)n(-c2ccccc2)c2ccccc12)N1CCNCC1Cc1ccccc1` (centres unmarked) [Example 126], 4500 nM.

For the origin of these results see patent US8211885B2, “Cyclic indole-3-carboxamides, their preparation and their use as pharmaceuticals” (Sanofi-Aventis, priority 2008, dated 2012).
